Patent publication US8148424B2, “Tocopherols, tocotrienols, other chroman and side chain derivatives and uses thereof” (Research Development Foundation, priority 1998, dated 2012)
Converted amounts (≈) assume the structure as drawn.

Key:
[1] = test system: human cancer cells from a wide variety of cell lineages; assay: Apoptosis induction in a battery of tumor cells; type: cell-based; settings: breast, prostate, leukemia/lymphoid, cervical, ovarian, endometrial, colon, lung cell lines
Method: (§1) Cells were cultured at 1.5×10^5 cells/well in 12 well plates. Cells were allowed to adhere overnight, then incubated with novel test compounds at 0.01, 0.1, 1, 5, 10 & 20 μg/mL for 1, 2 and 3 days. After treatment, cells (floating+trypsin released adherent cells) were pelleted, washed and stained with 2 μg/ml DAPI (4′,6-diamidine-2′-phenylindole dihydrochloride) in 100% methanol for 15 minutes at 37° C. and/or 3′-OH ends resulting from DNA fragmentation were detected with the TUNEL (terminal deoxynucleotidyl transferase-mediated dUTP-X 3′ nick end-labeling) technique, and then viewed using a Zeiss ICM 405 microscope. Cells whose nucleus contained clearly condensed or fragmented chromatin or stained for fragmented DNA in the TUNEL assay were scored as apoptotic. Data are presented as percent cells undergoing apoptosis.

LnCaP = assay: Bioassay for apoptosis (apoptotic EC50); type: cell-based, human; settings: for EC50: Homo sapiens, unit inferred
Method: as §1

HL-60 = assay: Bioassay for apoptosis (apoptotic EC50); type: cell-based, human; settings: for EC50: Homo sapiens, HL-60, HL-60, unit inferred
Method: as §1

MDA-MB-435 = assay: Bioassay for apoptosis (apoptotic EC50); type: cell-based, human; settings: for EC50: Homo sapiens, MDA-MB-435, MDA-MB-435, unit inferred, read-out: apoptotic EC50
Method: as §1

MCF-7 = assay: Bioassay for apoptosis (apoptotic EC50); type: cell-based, human; settings: for EC50: Homo sapiens, MCF7, MCF-7, unit inferred
Method: as §1

C-170 = assay: Bioassay for apoptosis (apoptotic EC50); type: cell-based, human; settings: for EC50: Homo sapiens, C170, C-170, unit inferred
Method: as §1

PC-3 = assay: Bioassay for apoptosis (apoptotic EC50); type: cell-based, human; settings: Homo sapiens, PC-3, PC-3; unit inferred
Method: as §1

ME-180 = assay: Bioassay for apoptosis (apoptotic EC50); type: cell-based, human; settings: for EC50: Homo sapiens, ME-180, ME-180, unit inferred
Method: as §1

RL-95-2 = assay: Bioassay for apoptosis (apoptotic EC50); type: cell-based, human; settings: Homo sapiens, RL95-2, RL-95-2; unit inferred
Method: as §1

MDA-MB-231 = assay: Bioassay for apoptosis (apoptotic EC50); type: cell-based, human; settings: Homo sapiens, MDA-MB-231, MDA-MB-231; unit inferred
Method: as §1

MCF-10A = assay: Bioassay for apoptosis (apoptotic EC50); type: cell-based; settings: Homo sapiens, unit inferred
Method: as §1

HMEC = assay: Bioassay for apoptosis (apoptotic EC50); type: cell-based; settings: Homo sapiens, unit inferred
Method: as §1

T47D = assay: Bioassay for apoptosis (apoptotic EC50); type: cell-based; settings: Homo sapiens, unit inferred
Method: as §1

A-549 = assay: Bioassay for apoptosis (apoptotic EC50); type: cell-based, human
Method: as §1

HT-29 = assay: Bioassay for apoptosis (apoptotic EC50); type: cell-based, human; settings: Homo sapiens, unit inferred
Method: as §1

Jurkat = assay: Bioassay for apoptosis (apoptotic EC50); type: cell-based, human
Method: as §1

DU-145 = assay: Bioassay for apoptosis (apoptotic EC50); type: cell-based, human; settings: unit not given, in µg/mL
Method: as §1

Cc1cc(OCC(=O)O)c(C)c2c1O[C@](C)(CCC[C@H](C)CCC[C@H](C)CCCC(C)C)CC2 [Compound 7, 2,5,8-trimethyl-(2R-(4R,8R,12-trimethyltridecyl)chroman-6-yloxy) acetic acid]
growth inhibitory (apoptotic inducing) properties specific for human cancer cells [1]: effective
EC50 (LnCaP): 2.5 to 5 µg/mL (≈ 5.27 to 10.5 µM)
EC50 (HL-60): 5 to 10 µg/mL (≈ 10.5 to 21.1 µM)
EC50 (MDA-MB-435): 5 to 10 µg/mL (≈ 10.5 to 21.1 µM)
EC50 (MCF-7): 10 to 20 µg/mL (≈ 21.1 to 42.1 µM)
EC50 (C-170): 10 to 20 µg/mL (≈ 21.1 to 42.1 µM)
EC50 (PC-3): 5 to 10 µg/mL (≈ 10.5 to 21.1 µM)
EC50 (ME-180): 5 to 10 µg/mL (≈ 10.5 to 21.1 µM)
EC50 (RL-95-2): 5 to 10 µg/mL (≈ 10.5 to 21.1 µM)
EC50 (MDA-MB-231): 5 to 10 µg/mL (≈ 10.5 to 21.1 µM)
EC50 (MCF-10A): > 20 µg/mL
EC50 (HMEC): > 20 µg/mL
EC50 (T47D): > 20 µg/mL

Cc1c(OCC(=O)O)cc2c(c1C)O[C@](C)(CCC[C@H](C)CCC[C@H](C)CCCC(C)C)CC2 [Compound 8, 2,7,8-trimethyl-(2R-(4R,8R,12-trimethyltridecyl)chroman-6-yloxy)acetic acid]
growth inhibitory (apoptotic inducing) properties specific for human cancer cells [1]: effective
EC50 (LnCaP): 5 to 10 µg/mL (≈ 10.5 to 21.1 µM)
EC50 (HL-60): 10 to 20 µg/mL (≈ 21.1 to 42.1 µM)
EC50 (MDA-MB-435): 5 to 10 µg/mL (≈ 10.5 to 21.1 µM)
EC50 (MCF-7): 10 to 20 µg/mL (≈ 21.1 to 42.1 µM)
EC50 (C-170): 10 to 20 µg/mL (≈ 21.1 to 42.1 µM)
EC50 (PC-3): 5 to 10 µg/mL (≈ 10.5 to 21.1 µM)
EC50 (ME-180): 5 to 10 µg/mL (≈ 10.5 to 21.1 µM)
EC50 (RL-95-2): 1 to 5 µg/mL (≈ 2.11 to 10.5 µM)
EC50 (MDA-MB-231): 5 to 10 µg/mL (≈ 10.5 to 21.1 µM)
EC50 (MCF-10A): > 20 µg/mL
EC50 (HMEC): > 20 µg/mL

Cc1cc(OCC(=O)O)cc2c1O[C@](C)(CCC[C@H](C)CCC[C@H](C)CCCC(C)C)CC2 [Compound 9, 2,8-dimethyl-(2R-(4R,8R,12-trimethyltridecyl)chroman-6-yloxy)acetic acid]
growth inhibitory (apoptotic inducing) properties specific for human cancer cells [1]: effective
EC50 (LnCaP): 5 to 10 µg/mL (≈ 10.9 to 21.7 µM)
EC50 (HL-60): 10 to 20 µg/mL (≈ 21.7 to 43.4 µM)
EC50 (MDA-MB-435): 5 to 10 µg/mL (≈ 10.9 to 21.7 µM)
EC50 (MCF-7): 10 to 20 µg/mL (≈ 21.7 to 43.4 µM)
EC50 (C-170): > 20 µg/mL
EC50 (PC-3): 5 to 10 µg/mL (≈ 10.9 to 21.7 µM)
EC50 (ME-180): 5 to 10 µg/mL (≈ 10.9 to 21.7 µM)
EC50 (RL-95-2): 5 to 10 µg/mL (≈ 10.9 to 21.7 µM)
EC50 (MDA-MB-231): 5 to 10 µg/mL (≈ 10.9 to 21.7 µM)
EC50 (MCF-10A): > 20 µg/mL
EC50 (HMEC): > 20 µg/mL

COC(=O)COc1c(C)c(C)c2c(c1C)CC[C@@](C)(CCC[C@H](C)CCC[C@H](C)CCCC(C)C)O2 [Compound 11, Methyl 2,5,7,8-tetramethyl-(2R-(4R,8R,12-trimethyltridecyl)chroman-6-yloxy)acetate]
EC50 (LnCaP): > 20 µg/mL
EC50 (HL-60): > 20 µg/mL
EC50 (MDA-MB-435): > 20 µg/mL
EC50 (MCF-7): > 20 µg/mL
EC50 (C-170): > 20 µg/mL
EC50 (PC-3): > 20 µg/mL
EC50 (ME-180): > 20 µg/mL
EC50 (RL-95-2): > 20 µg/mL
EC50 (MDA-MB-231): > 20 µg/mL
EC50 (MCF-10A): > 20 µg/mL
EC50 (HMEC): > 20 µg/mL

Cc1c(C)c2c(c(C)c1OCC(=O)N(CC(=O)O)CC(=O)O)CC[C@@](C)(CCC[C@H](C)CCC[C@H](C)CCCC(C)C)O2 [Compound 12]
growth inhibitory (apoptotic inducing) properties specific for human cancer cells [1]: effective
EC50 (LnCaP): 20 to 30 µg/mL (≈ 33.1 to 49.7 µM)
EC50 (HL-60): 20 to 30 µg/mL (≈ 33.1 to 49.7 µM)
EC50 (MDA-MB-435): 5 to 10 µg/mL (≈ 8.28 to 16.6 µM)
EC50 (MCF-7): 5 to 10 µg/mL (≈ 8.28 to 16.6 µM)
EC50 (C-170): 10 to 20 µg/mL (≈ 16.6 to 33.1 µM)
EC50 (PC-3): 10 to 20 µg/mL (≈ 16.6 to 33.1 µM)
EC50 (ME-180): 5 to 10 µg/mL (≈ 8.28 to 16.6 µM)
EC50 (RL-95-2): 5 to 10 µg/mL (≈ 8.28 to 16.6 µM)
EC50 (MDA-MB-231): 5 to 10 µg/mL (≈ 8.28 to 16.6 µM)
EC50 (MCF-10A): > 20 µg/mL
EC50 (HMEC): > 20 µg/mL

Cc1c(C)c2c(c(C)c1OCC(=O)O)CCC(C)(C)O2 [Compound 14, 2-(2,5,7,8-pentamethylchroman-6-yloxy)acetic acid]
EC50 (LnCaP): > 20 µg/mL
EC50 (HL-60): > 20 µg/mL
EC50 (MDA-MB-435): > 20 µg/mL
EC50 (MCF-7): > 20 µg/mL
EC50 (C-170): > 20 µg/mL
EC50 (PC-3): > 20 µg/mL
EC50 (ME-180): > 20 µg/mL
EC50 (RL-95-2): > 20 µg/mL
EC50 (MDA-MB-231): > 20 µg/mL
EC50 (MCF-10A): > 20 µg/mL
EC50 (HMEC): > 20 µg/mL

Cc1c(C)c2c(c(C)c1OCC(=O)O)CC[C@@](C)(CCCC(C)CCCC(C)CCCC(C)C)O2 (some centres unmarked) [Compound 17]
growth inhibitory (apoptotic inducing) properties specific for human cancer cells [1]: effective
EC50 (LnCaP): 10 to 20 µg/mL (≈ 20.5 to 40.9 µM)
EC50 (HL-60): 10 to 20 µg/mL (≈ 20.5 to 40.9 µM)
EC50 (MCF-7): 10 to 20 µg/mL (≈ 20.5 to 40.9 µM)
EC50 (C-170): 20 to 30 µg/mL (≈ 40.9 to 61.4 µM)
EC50 (A-549; Homo sapiens, A549, unit inferred): > 20 µg/mL
EC50 (ME-180): 20 to 30 µg/mL (≈ 40.9 to 61.4 µM)
EC50 (HT-29): > 20 µg/mL
EC50 (Jurkat; Homo sapiens, unit inferred): 10 to 20 µg/mL (≈ 20.5 to 40.9 µM)
EC50 (MCF-10A): > 20 µg/mL
EC50 (T47D): 10 to 20 µg/mL (≈ 20.5 to 40.9 µM)

Cc1c(C)c2c(c(C)c1OCCCN)CC[C@@](C)(CCC[C@H](C)CCCC(C)CCCC(C)C)O2.Cl (some centres unmarked) [Compound 19]
growth inhibitory (apoptotic inducing) properties specific for human cancer cells [1]: effective
apoptotic EC50 (DU-145): 5-10
apoptotic EC50 (LnCaP; unit not given, in µg/mL): 5-10
apoptotic EC50 (HL-60; HL-60, unit not given, in µg/mL): 10-20
apoptotic EC50 (MDA-MB-435; MDA-MB-435, unit not given, in µg/mL): 10-20
apoptotic EC50 (MCF-7; MCF-7, unit not given, in µg/mL): 10-20
apoptotic EC50 (C-170; C-170, unit not given, in µg/mL): 1-5
apoptotic EC50 (A-549; unit not given, in µg/mL): 20-30
apoptotic EC50 (ME-180; ME-180, unit not given, in µg/mL): 1-5
apoptotic EC50 (Jurkat; unit not given, in µg/mL): 10-20
